Experimental data as given in publication PMC11396839, “Structure-Aided Computational Design of Triazole-Based Targeted Covalent Inhibitors of Cruzipain” (Molecules, 2024).
Like-named read-outs stand apart in the source and are kept apart here.

Assays:
[1] = biological target: T1, recombinant human cathepsin L (hCatL) (Homo sapiens, UniProt P07711); experiment: hCatL screening, cleavage of Z-FR-AMC; format: biochemical; settings: for inhibition at 100 µM: read-out: % hCatL inhib.
T1 construct: purchased Sigma-Aldrich
T1 sequence (P07711 114-333): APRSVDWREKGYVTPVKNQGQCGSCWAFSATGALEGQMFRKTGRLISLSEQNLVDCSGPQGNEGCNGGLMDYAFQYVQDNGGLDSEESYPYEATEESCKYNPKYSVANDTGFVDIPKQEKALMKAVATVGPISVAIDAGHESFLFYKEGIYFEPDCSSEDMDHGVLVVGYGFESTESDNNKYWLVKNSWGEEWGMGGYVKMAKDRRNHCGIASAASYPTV
Experimental: The recombinant human cathepsin L (hCatL) (Sigma-Aldrich) was activated prior to the assays. First, 10 ng/ μ L of the enzyme was incubated in the activation buffer (50 mM MES, pH 6, 1 mM EDTA, 5mM DTT) for 30 min at 37 °C. hCatL activity was measured based on the cleavage of the fluorescent substrate Z-FR-AMC in a Biotec 87 Synergy 2 fluorimeter at the Multiuser Laboratory of the Biochemistry and Immunology Department (UFMG, Brazil). The assays were executed in 96-well round bottom black plates in 50 mM MES buffer, pH 6, containing 1 mM EDTA, 5 mM DTT, 0.001% Triton-X100, 5 pg/ μ L enzyme and 25 μ M Z-FR-AMC at 37 °C. The triazole-based derivatives were tested against hCatL, at 100 μ M, with a 10 min pre-incubation with the enzyme. The initial velocities of the DMSO control were compared to those in the presence of the compounds. Assays were executed in triplicate in two independent experiments, and enzyme activity was measured for 20 min.

[2] = biological target: T2, recombinant CZP (cruzain) (Trypanosoma cruzi, UniProt P25779); experiment: CZP inhibition, cleavage of fluorogenic substrate Z-FR-AMC (initial screening and IC50); format: biochemical, T. cruzi; settings: for times lower potency than the most active analogues (Ald-6 and Ald-10): CZP IC50 ratio
T2 construct: gift of Allison Doak and Prof; Brian Shoichet (University of California San Francisco)
T2 sequence (P25779 123-337): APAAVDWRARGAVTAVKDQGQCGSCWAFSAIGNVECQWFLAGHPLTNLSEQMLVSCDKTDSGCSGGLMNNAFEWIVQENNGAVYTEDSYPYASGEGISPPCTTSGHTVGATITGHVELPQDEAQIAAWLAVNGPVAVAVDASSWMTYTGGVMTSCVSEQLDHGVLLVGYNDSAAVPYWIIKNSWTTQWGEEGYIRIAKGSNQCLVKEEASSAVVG
Experimental: The previously reported methods were followed to evaluate the in vitro activity against CZP [91, 92, 93, 94]. Allison Doak and Prof. Brian Shoichet (University of California San Francisco, San Francisco, CA, USA) generously provided recombinant CZP (cruzain). The enzyme activity was measured by monitoring the cleavage of the fluorogenic substrate Z-FR-AMC at 25 °C. Unless stated otherwise, assays were performed using 2.5 μ M of substrate ( KM = 0.5 ± 0.1 μ M) and 0.5 nM CZP in a 0.1 M sodium acetate buffer, pH 5.5, 0.01% Triton X-100 and 2 mM β -mercaptoethanol. DMSO and 1 μ M E-64 were employed as negative and positive controls, respectively, in all assays. Fluorescence was monitored at 340/440 nm (excitation/emission) over time in a Biotec 87 Synergy 2 fluorimeter at the Multiuser Laboratory of the Biochemistry and Immunology Department (UFMG, Belo Horizonte, Brazil). All assays were performed in triplicate in two independent experiments.
Initial screening. For the initial screening against CZP, compounds at 100 μ M were tested against CZP with and without a 10min pre-incubation with the enzyme. The fluorescence was monitored for 10 min at 5 s intervals. DMSO and E-64 were employed in all assays as negative and positive controls, respectively. Initial velocities of the negative control (DMSO) were compared to those in the presence of compounds to calculate the percentage of inhibition. The reported values correspond to the mean and standard error of the mean (SEM) of experiments performed in triplicate in two independent experiments.
IC50 determination. Compounds in at least eight distinct compound concentrations (400 μ M, 100 μ M, 25 μ M, 6.25 μ M, 1.5 μ M, 0.4 μ M, 0.1 μ M and 0.025 μ M) were incubated with CZP for 10 min, and once the substrate was added, the fluorescence was monitored for 10 min at 5 s intervals. IC50 curves were obtained from a non-linear fit of the inhibition values versus the logarithmic concentration of the compounds. The reported IC50 values are the mean and SEM of two independent measurements performed in triplicate.

[3] = test system: T. cruzi (Tulahuen trypomastigotes overexpressing β-galactosidase) in Vero cells; experiment: T. cruzi inhibition assay, infection model in Vero cells, β-galactosidase activity; format: cell-based, Trypanosoma cruzi; settings: 50 μM (Ald-4 20 μM)
Experimental: To perform the assay, the drug screening method reported by Buckner et al. was adapted. Vero cells were seeded at 1 × 10^4 per well on 96-well culture plates in 100 μ L MEM-5% FBS. Tulahuen trypomastigotes overexpressing the E. coli β -galactosidase protein were distributed in triplicates on the plate. After a 2 h incubation at 37 °C, the culture media were extracted and replaced with fresh MEM-5% FBS with 1 μ M, 10 μ M or 50 μ M solutions of the triazole-based inhibitors, and the plate was incubated another 72 h at 37 °C. Ninety-six hours post infection, the cell culture media were removed and cells and intracellular amastigotes were lysed in 100 μ L lysis buffer (25 mM Tris pH 8, 2 mM EDTA, 2 mM DTT, 1% Triton X-100, 10% glycerol in ultrapure MQ water) for 10 min at 37 °C. Then, 100 μ L 2× reaction buffer (200 mM sodium phosphate pH 8, 2 mM MgCl2, 100 mM 2-mercaptoethanol and 1.33 mg.mL^−1 o-nitrophenyl- β -galactoside (ONPG)) was added and the reaction was allowed to proceed until a yellow color developed (1–2 h at 37 °C). The absorbance at 420 nm was measured in a Synergy HTX multi-mode microplate reader (Biotek Instruments, Winooski, VT, USA) and normalized to the value obtained for the infection in the absence of inhibitors. To determine its IC50, Ald-6 was evaluated at nine different concentrations (0.098, 0.195, 0.39, 0.78, 1.56 3.13 6.25, 12.5 and 50.0 μ M), following the same protocol. Each infection condition and inhibitor were tested in triplicates in four independent experiments.

[4] = 100 μM, 10 min pre-incubation of the enzyme with compound, read-out: % CZP inh.
[5] = 10 min incubation with CZP, mean ± SEM of two independent experiments, read-out: IC50 (μM) against CZP

Compound | inhibition at 100 µM [2, 4] [%] | further results
O=CC(Cc1ccccc1)n1cc(C(NCc2ccc3c(c2)OCO3)C2CCCCC2)nn1 (stereo not drawn) [Ald-1] | 64 ± 5 | selectivity for CZP over hCatL in words ([1]; 100 μM): selective CZP inhibitors; inhibition at 100 µM ([1]; 10 min incubation): 0%; IC50 [2]: 41 ± 4 µM; times lower potency than the most active analogues (Ald-6 and Ald-10) [2]: 12.4
O=CC(CCC(=O)O)n1cc(C(NCc2ccc3c(c2)OCO3)C2CCCCC2)nn1 (stereo not drawn) [Ald-3] | 8 ± 2 | CZP inhibitory activity in words [2]: not active at all
O=CC(Cc1c[nH]cn1)n1cc(C(NCc2ccc3c(c2)OCO3)C2CCCCC2)nn1 (stereo not drawn) [Ald-4] | 83 ± 2 | anti-T. cruzi/cytotoxicity balance in words [3]: acceptable anti-T. cruzi/cytotoxicity balance; selectivity for CZP over hCatL in words ([1]; 100 μM): selective CZP inhibitors; inhibition at 100 µM ([1]; 10 min incubation): 10 ± 3%; IC50 [2, 5]: 5 ± 2 µM
CC(C)CC(C=O)n1cc(C(NCc2ccc3c(c2)OCO3)C2CCCCC2)nn1 (stereo not drawn) [Ald-5] | 64 ± 2 | selectivity for CZP over hCatL in words ([1]; 100 μM): selective CZP inhibitors; inhibition at 100 µM ([1]; 10 min incubation): 24 ± 9%; IC50 [2]: 7 ± 2 µM
CSCCC(C=O)n1cc(C(NCc2ccc3c(c2)OCO3)C2CCCCC2)nn1 (stereo not drawn) [Ald-7] | 42 ± 7 | 
O=CC(c1ccccc1)n1cc(C(NCc2ccc3c(c2)OCO3)C2CCCCC2)nn1 (stereo not drawn) [Ald-9] | 11 ± 3 | 
CC(O)C(C=O)n1cc(C(NCc2ccc3c(c2)OCO3)C2CCCCC2)nn1 (stereo not drawn) [Ald-11] | 58 ± 4 | 
O=CC(Cc1c[nH]c2ccccc12)n1cc(C(NCc2ccc3c(c2)OCO3)C2CCCCC2)nn1 (stereo not drawn) [Ald-12] | 56 ± 7 | selectivity for CZP over hCatL in words ([1]; 100 μM): selective CZP inhibitors; inhibition at 100 µM ([1]; 10 min incubation): 0%; IC50 [2, 5]: 45.4 ± 0.3 µM; times lower potency than the most active analogues (Ald-6 and Ald-10) [2]: 13.8
O=CC(Cc1ccc(O)cc1)n1cc(C(NCc2ccc3c(c2)OCO3)C2CCCCC2)nn1 (stereo not drawn) [Ald-13] | 83 ± 2 | selectivity for CZP over hCatL in words ([1]; 100 μM): selective CZP inhibitors; inhibition at 100 µM ([1]; 10 min incubation): 0%; IC50 [2, 5]: 13 ± 5 µM; times lower potency than the most active analogues (Ald-6 and Ald-10) [2]: 3.9
O=CC(Cc1ccccc1)n1cc(C(C2CCCCC2)N2CCc3ccccc3C2)nn1 (stereo not drawn) [Ald-16] | 34 ± 5 | 
O=CC(Cc1c[nH]cn1)n1cc(C(C2CCCCC2)N2CCc3ccccc3C2)nn1 (stereo not drawn) [Ald-17] | 38 ± 6 | 
CSCCC(C=O)n1cc(C(C2CCCCC2)N2CCc3ccccc3C2)nn1 (stereo not drawn) [Ald-18] | 16 ± 4 | 
O=CC(c1ccccc1)n1cc(C(C2CCCCC2)N2CCc3ccccc3C2)nn1 (stereo not drawn) [Ald-19] | 3 ± 10 | 
O=CC(CO)n1cc(C(C2CCCCC2)N2CCc3ccccc3C2)nn1 (stereo not drawn) [Ald-20] | 83 ± 3 | anti-T. cruzi/cytotoxicity balance in words [3]: acceptable anti-T. cruzi/cytotoxicity balance; selectivity for CZP over hCatL in words ([1]; 100 μM): selective CZP inhibitors; inhibition at 100 µM ([1]; 10 min incubation): 0%; IC50 [2]: 7 ± 4 µM
CC(O)C(C=O)n1cc(C(C2CCCCC2)N2CCc3ccccc3C2)nn1 (stereo not drawn) [Ald-21] | 8 ± 7 | 
O=CC(Cc1c[nH]c2ccccc12)n1cc(C(C2CCCCC2)N2CCc3ccccc3C2)nn1 (stereo not drawn) [Ald-22] | 55 ± 9 | 
CC(C)C[C@H](NC(=O)[C@H]1O[C@@H]1C(=O)O)C(=O)NCCCCN=C(N)N [E-64, reference compound] |  | % hCatL inhib. ([1]; 100 μM, 10 min incubation): 97 ± 3%; CZP inhibition by positive control ([2]; 1 μM, 10 min preincubation): 98%; % CZP inh. ([2]; 100 μM, 10 min pre-incubation of the enzyme with compound): 98 ± 2%; % CZP inhib. wo/inc. ([2]; 100 μM, without prior incubation): 12± 8%
COC(=O)[C@H](Cc1ccccc1)n1cc(C(NCc2ccc3c(c2)OCO3)C2CCCCC2)nn1 (stereo partly drawn) [Es-1] | 15 ± 2 | 
COC(=O)C(C(C)C)n1cc(C(NCc2ccc3c(c2)OCO3)C2CCCCC2)nn1 (stereo not drawn) [Es-2] | 9 ± 7 | 

Compound | inhibition at 100 µM [2, 4] [%] | further results
COC(=O)C(CCC(=O)O)n1cc(C(NCc2ccc3c(c2)OCO3)C2CCCCC2)nn1 (stereo not drawn) [Es-3] | 8 ± 7 | 
COC(=O)C(Cc1c[nH]cn1)n1cc(C(NCc2ccc3c(c2)OCO3)C2CCCCC2)nn1 (stereo not drawn) [Es-4] | 5 ± 4 | 
COC(=O)C(CC(C)C)n1cc(C(NCc2ccc3c(c2)OCO3)C2CCCCC2)nn1 (stereo not drawn) [Es-5] | 5 ± 2 | 
COC(=O)[C@H](CCCCN)n1cc(C(NCc2ccc3c(c2)OCO3)C2CCCCC2)nn1 (stereo partly drawn) [Es-6] | 9 ± 2 | 
COC(=O)C(C)n1cc(C(NCc2ccc3c(c2)OCO3)C2CCCCC2)nn1 (stereo not drawn) [Es-8] | 8 ± 7 | 
COC(=O)C(c1ccccc1)n1cc(C(NCc2ccc3c(c2)OCO3)C2CCCCC2)nn1 (stereo not drawn) [Es-9] | 6 ± 5 | 
COC(=O)C(CO)n1cc(C(NCc2ccc3c(c2)OCO3)C2CCCCC2)nn1 (stereo not drawn) [Es-10] | ≥ 47 | inhibition at 100 µM ([2]; read-out: % CZP inhib. wo/inc., 100 μM, without prior incubation): 43 ± 4%
COC(=O)C(C(C)O)n1cc(C(NCc2ccc3c(c2)OCO3)C2CCCCC2)nn1 (stereo not drawn) [Es-11] | 0 | 
COC(=O)C(Cc1c[nH]c2ccccc12)n1cc(C(NCc2ccc3c(c2)OCO3)C2CCCCC2)nn1 (stereo not drawn) [Es-12] | 15 ± 2 | 
COC(=O)C(Cc1ccc(O)cc1)n1cc(C(NCc2ccc3c(c2)OCO3)C2CCCCC2)nn1 (stereo not drawn) [Es-13] | 8 ± 1 | 
CCOC(=O)C(Cc1ccccc1)n1cc(C(C2CCCCC2)N2CCc3ccccc3C2)nn1 (stereo not drawn) [Es-16] | 13 ± 6 | 
COC(=O)C(Cc1c[nH]cn1)n1cc(C(C2CCCCC2)N2CCc3ccccc3C2)nn1 (stereo not drawn) [Es-17] | 6 ± 3 | 
CCOC(=O)C(CCSC)n1cc(C(C2CCCCC2)N2CCc3ccccc3C2)nn1 (stereo not drawn) [Es-18] | 0 | 
COC(=O)C(c1ccccc1)n1cc(C(C2CCCCC2)N2CCc3ccccc3C2)nn1 (stereo not drawn) [Es-19] | 0 | 
COC(=O)C(CO)n1cc(C(C2CCCCC2)N2CCc3ccccc3C2)nn1 (stereo not drawn) [Es-20] | 5 ± 4 | 
COC(=O)C(C(C)O)n1cc(C(C2CCCCC2)N2CCc3ccccc3C2)nn1 (stereo not drawn) [Es-21] | 0 | 
COC(=O)C(Cc1c[nH]c2ccccc12)n1cc(C(C2CCCCC2)N2CCc3ccccc3C2)nn1 (stereo not drawn) [Es-22] | 1 ± 6 | 
COC(=O)C(Cc1ccc(O)cc1)n1cc(C(C2CCCCC2)N2CCc3ccccc3C2)nn1 (stereo not drawn) [Es-23] | 1 ± 14 | 
COC(=O)C(CCCNC(=N)N)n1cc(C(C2CCCCC2)N2CCc3ccccc3C2)nn1 (stereo not drawn) [Es-24] | 6 ± 1 | 
